Reference: PubChem BioAssay (NCI)
Where “and” joins values, the source holds several entries; their conditions need not be identical. Identical values can stand only once.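 Compound exposure: 48 hours, 5 concentrations, 96-well plates. GI50 is the concentration that inhibits growth by half. TGI: concentration producing complete growth inhibition.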

What was measured:
Assay in all cases: NCI anticancer screen, dose series, 48 h
SNB-19 CNS = tested on: SNB-19 CNS
HCC-2998 colon = tested on: HCC-2998 colon
DU-145 prostate = tested on: DU-145 prostate
COLO 205 colon = tested on: COLO 205 colon
OVCAR-4 ovarian = tested on: OVCAR-4 ovarian
T-47D breast = tested on: T-47D breast
HCT-15 colon = tested on: HCT-15 colon
NCI-H226 lung = tested on: NCI-H226 lung
ACHN renal = tested on: ACHN renal
HCT-116 colon = tested on: HCT-116 colon

| Structure (SMILES) | GI50 (SNB-19 CNS) [µM] | TGI (SNB-19 CNS) | GI50 (HCC-2998 colon) [µM] | TGI (HCC-2998 colon) [µM] | GI50 (DU-145 prostate) [µM] | TGI (DU-145 prostate) | GI50 (COLO 205 colon) [µM] | TGI (COLO 205 colon) [µM] | GI50 (OVCAR-4 ovarian) [µM] | TGI (OVCAR-4 ovarian) | GI50 (T-47D breast) [µM] | TGI (T-47D breast) | GI50 (HCT-15 colon) [µM] | TGI (HCT-15 colon) | GI50 (NCI-H226 lung) [µM] | TGI (NCI-H226 lung) [µM] | GI50 (ACHN renal) [µM] | TGI (ACHN renal) | GI50 (HCT-116 colon) [µM] | TGI (HCT-116 colon) |
| --- | --- | --- | --- | --- | --- | --- | --- | --- | --- | --- | --- | --- | --- | --- | --- | --- | --- | --- | --- | --- |
| COc1ccc(N2CCN(C(=O)c3ccccc3Nc3ccnc(C(F)(F)F)c3)CC2)cc1 | 78.3 | > 100 µM | > 100 | > 100 | > 100 | > 100 µM | 63 | > 100 | 22.4 | > 100 µM | 9.23 | 96.7 µM | > 100 | > 100 µM | 96.5 | > 100 | > 100 | > 100 µM | 37.7 | > 100 µM |
| NC(=O)CCC(NC(=O)OCc1ccccc1)C(=O)OCC(=O)c1ccccc1 (configuration not stated) | > 100 | > 100 µM | 65.6 | > 100 | > 100 | > 100 µM | > 100 | > 100 | > 100 | > 100 µM | > 100 | > 100 µM | > 100 | > 100 µM | > 100 | > 100 | > 100 | > 100 µM | > 100 | > 100 µM |
| COc1ccc(SC2c3cc(OC)c(OC)cc3Oc3nc(N)c(C#N)c(N)c32)cc1 (configuration not stated) | 1.32 | 2.64 µM | 1.72 | 3.12 | 1.73 | 3.11 µM | 1.29 | 2.65 | 1.33 | 2.73 µM | 1.3 | 3.31 µM | 0.973 | 2.23 µM | 1.37 | 2.68 | 1.74 | 3.12 µM | 0.68 | 2.16 µM |
| Cc1ccc2c(c1)C(=O)c1c-2n(CCCN)c(=O)c2cc([N+](=O)[O-])ccc12 | 0.178 | 0.706 µM | 0.531 | 1.17 | 0.262 | 0.89 µM | 0.178 | 0.913 | 0.605 | 1.26 µM | 0.157 | 0.461 µM | 0.351 | 1.01 µM | 0.54 | 1.33 | 0.106 | 0.609 µM | 0.166 | 0.718 µM |
| CN(C)c1ccc(/C=C2\C[C@H]3[C@@H]4CC=C5C[C@@H](N6CCCC6)CC[C@]5(C)[C@H]4CC[C@]3(C)[C@H]2O)cc1 | 2.41 | 6.94 µM and 9.08 µM |  | 1.86 | 13.7 | 13.7 µM and > 100 µM |  | 4.12 | 2.16 | 2 µM and 5.96 µM | 2.33 | 2.33 µM and 6.03 µM | 3.43 | 5.51 µM and 22.3 µM | 14 |  | 1.82 | 1.71 µM and 3.34 µM | 2.1 | 1.7 µM and 4.67 µM |
| Cc1ccc(Cl)cc1Nc1nc(C(F)(F)F)ccc1C(=O)Nc1cccc(C(F)(F)F)c1 | 3.59 | 14.6 µM | 1.78 | 4.46 | 4.76 | 16.6 µM | 1.72 | 3.36 | 3.58 | 17.8 µM | 2.23 | 8.95 µM | 3.67 | 14.9 µM | 6 | 25.5 | 2.95 | 12.8 µM | 2.39 | 10.3 µM |
| O=C(NCc1cccnc1)/C(=C\c1ccc(Br)cc1)S(=O)(=O)c1ccccc1 | 1.43 | 2.83 µM | 1.51 | 3 | 0.431 | 1.53 µM | 1.22 | 2.65 | 0.416 | 1.8 µM | 1.04 | 3.12 µM | 0.536 | 2.27 µM | 1.29 | 2.67 | 0.719 | 1.97 µM | 0.46 | 1.84 µM |
| C=C1CCC2C3(C)COC(c4ccc(NC(C)=O)cc4)OC3CCC2(C)C1C/C=C1/C(=O)OCC1O (configuration not stated) | > 100 | > 100 µM | 7.75 | > 100 | > 100 | > 100 µM | 4.22 | > 100 | 6.81 | > 100 µM | 2.53 | > 100 µM | 9.58 | > 100 µM | 26.3 | > 100 | 7.63 | > 100 µM | 4.7 | > 100 µM |
| Cn1nc(C(F)(F)F)c(-c2ccc(Cl)c(C(F)(F)F)c2)c1-c1ccc(OCc2ccc(Cl)cc2)cc1O | 2.03 | 8.17 µM | 1.88 | 6.73 | 2.03 | 7.47 µM | 1.41 | 4.45 | 1.62 | 6.13 µM | 1.27 | 5.32 µM | 1.6 | 6 µM | 1.73 | 6.84 | 1.61 | 5.03 µM | 1.5 | 5.46 µM |
| CC(=O)Oc1ccc(OC(C)=O)c2ccccc12 | 30.5 | > 100 µM | 17.5 | 31.7 | 15.9 | 29.6 µM | 15 | 28.2 | 1.71 | 3.1 µM | 1.21 | 3.16 µM | 14.3 | 34.5 µM | 14.4 | 31.3 | 6.37 | 19.2 µM | 3.59 | 12.9 µM |
